Reference: US20060046968A1, “Prodrug substituted benzoxazoles as estrogenic agents” (priority 2004, published 2006)

Key:
Assay type in all cases: in vivo
Male HLA-B27 rats [1] = experiment: HLA rat test for inflammatory bowel disease: stool character (3 = diarrhea; 2 = soft stool; 1 = normal stool); conditions: Study B
[2] = tested on: Progesterone receptor mRNA; experiment: Progesterone receptor mRNA regulation in the preoptic area of the rat brain; conditions: 10 mg/kg
[3] = tested on: Sexually immature 129 SvE mice; experiment: Mouse uterotrophic test procedure (Procedure 2); conditions: compound 50 mg/kg s.c., days 22-25
Male HLA-B27 rats [4] = experiment: HLA-B27 rat model of arthritis: joint scores; conditions: Study 2
Male HLA-B27 rats [5] = experiment: HLA-B27 rat test for inflammatory bowel disease: histological scoring of colon; conditions: Study B, oral 4 weeks
Procedure: Representative metabolites of compounds of the invention were evaluated in the HLA rat standard pharmacological test procedure, which emulates inflammatory bowel disease in humans. The following briefly describes the procedure used and results obtained. […] Louis) and water. Stool quality was observed daily and graded according to the following scale: Diarrhea=3; soft stool=2; normal stool=1. At the end of the study, serum was collected and stored at −70° C. A section of colon was prepared for histological analysis and an additional segment was analyzed for myeloperoxidase activity. In Study A, rats (22-26 weeks old) were dosed subcutaneously once per day for seven days with one of the regimens listed below. […] Histological analysis. Colonic tissue was immersed in 10% neutral buffered formalin. Each specimen of colon was separated into four samples for evaluation. The formalin-fixed tissues were processed in a Tissue-Tek® vaccum infiltration processor (Miles, Inc; West Haven, Conn.) for paraffin embedding. The samples were sectioned at 5 μm and then stained with hematoxylin and eosin (H&E) for blinded histological evaluations using a scale modified after Boughton-Smith. After the scores were completed, the samples were unblinded, and data were tabulated and analyzed by ANOVA linear modeling with multiple mean comparisons. Sections of colonic tissue were evaluated for several disease indicators and given relative scores.

[6] = tested on: Sexually immature Sprague-Dawley rats; experiment: Rat uterotrophic test procedure (Procedure 1); conditions: compound 2 mg/rat + 17α-ethinyl, 17β-estradiol 0.06 μg/rat s.c. (antagonist mode)
[7] = oral 20 mg/kg (10 mg/kg days 1-14), Day 16
[8] = oral 20 mg/kg (10 mg/kg days 1-14), Day 17
[9] = oral 20 mg/kg (10 mg/kg days 1-14), Day 19
[10] = oral 20 mg/kg (10 mg/kg days 1-14), Day 22
[11] = oral 20 mg/kg (10 mg/kg days 1-14), Day 23
[12] = oral 20 mg/kg (10 mg/kg days 1-14), Day 26
[13] = 10 mg/kg days 1-14, then 20 mg/kg

## C=Cc1cc(O)cc2nc(-c3ccc(O)cc3F)oc12 [Example 25, 2-(2-FLUORO-4-HYDROXYPHENYL)-7-VINYL-1,3-BENZOXAZOL-5-OL]
Male HLA-B27 rats [1]; oral 10 mg/kg, Day 1
  Stool Character (group's average score): 1
Male HLA-B27 rats [1]; oral 10 mg/kg, Day 2
  Stool Character (group's average score): 1
Male HLA-B27 rats [1]; oral 10 mg/kg, Day 3
  Stool Character (group's average score): 1.25
Male HLA-B27 rats [1]; oral 10 mg/kg, Day 4
  Stool Character (group's average score): 1.25
Male HLA-B27 rats [1]; oral 10 mg/kg, Day 5
  Stool Character (group's average score): 1.75
Male HLA-B27 rats [1]; oral 10 mg/kg, Day 6
  Stool Character (group's average score): 1.5
Male HLA-B27 rats [1]; oral 10 mg/kg, Day 9
  Stool Character (group's average score): 1.75
Male HLA-B27 rats [1]; oral 10 mg/kg, Day 10
  Stool Character (group's average score): 1.5
Male HLA-B27 rats [1]; oral 10 mg/kg, Day 12
  Stool Character (group's average score): 1.75
Male HLA-B27 rats [1]; oral 10 mg/kg, Day 13
  Stool Character (group's average score): 2.25
Male HLA-B27 rats [1]; [7]
  Stool Character (group's average score): 1.5
Male HLA-B27 rats [1]; [8]
  Stool Character (group's average score): 1.5
Male HLA-B27 rats [1]; oral 20 mg/kg (10 mg/kg days 1-14), Day 18
  Stool Character (group's average score): 1.5
Male HLA-B27 rats [1]; [9]
  Stool Character (group's average score): 1.25
Male HLA-B27 rats [1]; [10]
  Stool Character (group's average score): 1.25
Male HLA-B27 rats [1]; [11]
  Stool Character (group's average score): 1.25
Male HLA-B27 rats [1]; oral 20 mg/kg (10 mg/kg days 1-14), Day 24
  Stool Character (group's average score): 1.25
Male HLA-B27 rats [1]; oral 20 mg/kg (10 mg/kg days 1-14), Day 25
  Stool Character (group's average score): 1.25
Male HLA-B27 rats [1]; [12]
  Stool Character (group's average score): 1.25
[2]
  Progesterone receptor mRNA (mean ± stdev): 447.0 ± 60.7 arbitrary units
[3]
  mean uterine weight ± SEM: 9.7 ± 1.0 mg
Male HLA-B27 rats [4]; oral 10 mg/kg, Day 1
  Joint inflammation score: 0
Male HLA-B27 rats [4]; oral 10 mg/kg, Day 2
  Joint inflammation score: 0
Male HLA-B27 rats [4]; oral 10 mg/kg, Day 3
  Joint inflammation score: 0
Male HLA-B27 rats [4]; oral 10 mg/kg, Day 4
  Joint inflammation score: 0
Male HLA-B27 rats [4]; oral 10 mg/kg, Day 5
  Joint inflammation score: 0
Male HLA-B27 rats [4]; oral 10 mg/kg, Day 6
  Joint inflammation score: 0
Male HLA-B27 rats [4]; oral 10 mg/kg, Day 7
  Joint inflammation score: 0
Male HLA-B27 rats [4]; oral 10 mg/kg, Day 8
  Joint inflammation score: 1
Male HLA-B27 rats [4]; oral 10 mg/kg, Day 10
  Joint inflammation score: 2.25
Male HLA-B27 rats [4]; oral 10 mg/kg, Day 11
  Joint inflammation score: 2.25
Male HLA-B27 rats [4]; oral 20 mg/kg (10 mg/kg days 1-14), Day 15
  Joint inflammation score: 3.75
Male HLA-B27 rats [4]; [7]
  Joint inflammation score: 3
Male HLA-B27 rats [4]; [8]
  Joint inflammation score: 2.75
Male HLA-B27 rats [4]; [9]
  Joint inflammation score: 1.5
Male HLA-B27 rats [4]; [10]
  Joint inflammation score: 1.25
Male HLA-B27 rats [4]; [11]
  Joint inflammation score: 2.5
Male HLA-B27 rats [4]; [12]
  Joint inflammation score: 1.75
Male HLA-B27 rats [5]; [13]
  Fibrosis (0-2), mean ± SD: 0.31 ± 0.13
  Inflammation (0-3), mean ± SD: 1.50 ± 0.35
  Lesion depth (0-2), mean ± SD: 0.44 ± 0.24
  Total score, mean ± SD: 2.69 ± 0.52
  Ulceration (0-2), mean ± SD: 0.44 ± 0.24

## Oc1ccc(-c2nc3cc(O)ccc3o2)cc1 [Example 12, 2-(4-HYDROXYPHENYL)-1,3-BENZOXAZOL-5-OL]
[6]
  mean uterine weight ± SEM: 60.2 ± 4.0 mg
[2]
  Progesterone receptor mRNA (mean ± stdev): 256.2 ± 42.3 arbitrary units
[3]
  mean uterine weight ± SEM: 13.7 ± 0.82 mg

## C=CCc1cc(O)cc2nc(-c3ccc(O)c(F)c3)oc12 [Example 34, 7-ALLYL-2-(3-FLUORO-4-HYDROXYPHENYL)-1,3-BENZOXAZOL-5-OL]
Male HLA-B27 rats [1]; oral 10 mg/kg, Day 1
  Stool Character (group's average score): 1
Male HLA-B27 rats [1]; oral 10 mg/kg, Day 2
  Stool Character (group's average score): 1
Male HLA-B27 rats [1]; oral 10 mg/kg, Day 3
  Stool Character (group's average score): 1
Male HLA-B27 rats [1]; oral 10 mg/kg, Day 4
  Stool Character (group's average score): 1.25
Male HLA-B27 rats [1]; oral 10 mg/kg, Day 5
  Stool Character (group's average score): 2
Male HLA-B27 rats [1]; oral 10 mg/kg, Day 6
  Stool Character (group's average score): 1.75
Male HLA-B27 rats [1]; oral 10 mg/kg, Day 7
  Stool Character (group's average score): 1.75
Male HLA-B27 rats [1]; oral 10 mg/kg, Day 8
  Stool Character (group's average score): 1.5
Male HLA-B27 rats [1]; oral 10 mg/kg, Day 9
  Stool Character (group's average score): 1.5
Male HLA-B27 rats [1]; oral 10 mg/kg, Day 10
  Stool Character (group's average score): 1.25
Male HLA-B27 rats [1]; oral 10 mg/kg, Day 11
  Stool Character (group's average score): 1.5
Male HLA-B27 rats [1]; oral 10 mg/kg, Day 12
  Stool Character (group's average score): 1.5
Male HLA-B27 rats [1]; oral 10 mg/kg, Day 13
  Stool Character (group's average score): 1.25
Male HLA-B27 rats [1]; oral 10 mg/kg, Day 14
  Stool Character (group's average score): 1.25
Male HLA-B27 rats [1]; oral 10 mg/kg, Day 15
  Stool Character (group's average score): 1.25
Male HLA-B27 rats [1]; oral 10 mg/kg, Day 16
  Stool Character (group's average score): 1
Male HLA-B27 rats [1]; oral 10 mg/kg, Day 17
  Stool Character (group's average score): 1
Male HLA-B27 rats [1]; oral 10 mg/kg, Day 18
  Stool Character (group's average score): 1.25
Male HLA-B27 rats [1]; oral 10 mg/kg, Day 19
  Stool Character (group's average score): 1
Male HLA-B27 rats [1]; oral 10 mg/kg, Day 22
  Stool Character (group's average score): 1
Male HLA-B27 rats [1]; oral 10 mg/kg, Day 23
  Stool Character (group's average score): 1
Male HLA-B27 rats [1]; oral 10 mg/kg, Day 24
  Stool Character (group's average score): 1
Male HLA-B27 rats [1]; oral 10 mg/kg, Day 25
  Stool Character (group's average score): 1
Male HLA-B27 rats [1]; oral 10 mg/kg, Day 26
  Stool Character (group's average score): 1
[2]
  Progesterone receptor mRNA (mean ± stdev): 511.5 ± 23.7 arbitrary units
Male HLA-B27 rats [4]; oral 10 mg/kg, Day 1
  Joint inflammation score: 0
Male HLA-B27 rats [4]; oral 10 mg/kg, Day 2
  Joint inflammation score: 0
Male HLA-B27 rats [4]; oral 10 mg/kg, Day 3
  Joint inflammation score: 0
Male HLA-B27 rats [4]; oral 10 mg/kg, Day 4
  Joint inflammation score: 0
Male HLA-B27 rats [4]; oral 10 mg/kg, Day 5
  Joint inflammation score: 0
Male HLA-B27 rats [4]; oral 10 mg/kg, Day 6
  Joint inflammation score: 0
Male HLA-B27 rats [4]; oral 10 mg/kg, Day 7
  Joint inflammation score: 0
Male HLA-B27 rats [4]; oral 10 mg/kg, Day 8
  Joint inflammation score: 0.25
Male HLA-B27 rats [4]; oral 10 mg/kg, Day 9
  Joint inflammation score: 0.75
Male HLA-B27 rats [4]; oral 10 mg/kg, Day 10
  Joint inflammation score: 0.5
Male HLA-B27 rats [4]; oral 10 mg/kg, Day 11
  Joint inflammation score: 0.5
Male HLA-B27 rats [4]; oral 10 mg/kg, Day 12
  Joint inflammation score: 0.25
Male HLA-B27 rats [4]; oral 10 mg/kg, Day 13
  Joint inflammation score: 0.5
Male HLA-B27 rats [4]; oral 10 mg/kg, Day 14
  Joint inflammation score: 0
Male HLA-B27 rats [4]; oral 10 mg/kg, Day 15
  Joint inflammation score: 0.5
Male HLA-B27 rats [4]; oral 10 mg/kg, Day 16
  Joint inflammation score: 0.5
Male HLA-B27 rats [4]; oral 10 mg/kg, Day 17
  Joint inflammation score: 0.25
Male HLA-B27 rats [4]; oral 10 mg/kg, Day 18
  Joint inflammation score: 0.75
Male HLA-B27 rats [4]; oral 10 mg/kg, Day 19
  Joint inflammation score: 1
Male HLA-B27 rats [4]; oral 10 mg/kg, Day 22
  Joint inflammation score: 1
Male HLA-B27 rats [4]; oral 10 mg/kg, Day 23
  Joint inflammation score: 1.75
Male HLA-B27 rats [4]; oral 10 mg/kg, Day 24
  Joint inflammation score: 1.75
Male HLA-B27 rats [4]; oral 10 mg/kg, Day 25
  Joint inflammation score: 2
Male HLA-B27 rats [4]; oral 10 mg/kg, Day 26
  Joint inflammation score: 3
Male HLA-B27 rats [5]; 10 mg/kg
  Fibrosis (0-2), mean ± SD: 0.31 ± 0.32
  Inflammation (0-3), mean ± SD: 1.81 ± 0.13
  Lesion depth (0-2), mean ± SD: 0.63 ± 0.32
  Total score, mean ± SD: 3.50 ± 1.10
  Ulceration (0-2), mean ± SD: 0.75 ± 0.46
